Source: US20260176260A1, “DUAL RAF AND TUBULIN INHIBITORS AND METHODS OF USE THEREOF” (Deciphera Pharmaceuticals, LLC, priority 2023, published 2026)
Read-outs that look alike come from different tables or passages of the source.

How the values were obtained:
B-Raf kinase = target: T1, B-Raf kinase (Homo sapiens, UniProt P15056); assay: Biochemical assay for B-Raf (coupled pyruvate kinase/lactate dehydrogenase)
T1 construct: purchased Sigma

C-Raf kinase = target: T2, C-Raf kinase (Homo sapiens, UniProt P04049, Y340D/Y341D); assay: Biochemical assay for C-Raf (coupled pyruvate kinase/lactate dehydrogenase)
T2 construct: C-Raf residues 306-end; Y340D, Y341D with N-; purchased Sigma
T2 sequence (P04049 307-648 Y340D/Y341D): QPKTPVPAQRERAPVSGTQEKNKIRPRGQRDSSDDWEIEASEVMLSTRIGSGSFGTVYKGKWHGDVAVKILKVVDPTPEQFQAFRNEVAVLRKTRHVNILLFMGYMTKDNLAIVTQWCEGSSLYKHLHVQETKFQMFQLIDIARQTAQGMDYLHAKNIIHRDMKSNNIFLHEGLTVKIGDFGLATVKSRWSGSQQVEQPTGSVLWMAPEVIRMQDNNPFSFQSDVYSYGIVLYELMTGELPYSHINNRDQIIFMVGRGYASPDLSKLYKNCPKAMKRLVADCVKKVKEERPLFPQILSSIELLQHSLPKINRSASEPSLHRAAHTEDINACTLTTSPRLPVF

Pa16c cells = assay: Pa16c cell proliferation assay (resazurin); type: cell-based; settings: Table 2, inhibition of cell proliferation
Method: Pa16c cells are obtained from Dr. Channing Der, University of North Carolina at Chapel Hill. Briefly, cells are grown in Dulbecco's Modified Eagle Medium supplemented with 10% characterized fetal bovine serum (Invitrogen, Carlsbad, CA) and 1% Penicillin/Streptomycin/L-Glutamine at 37° C., 5% CO2, and 95% humidity. Cells are expanded until reaching 70-95% confluency at which point they are sub-cultured or harvested for assay use. A serial dilution of test compound is dispensed into a 384-well black clear bottom plate in triplicate. 750 cells are added per well in 50 μL complete growth medium in the 384-well plate. Plates are incubated for 67 to 72 h at 37° C., 5% CO2, and 95% humidity. At the end of the incubation, 40 μL of a […] solution of resazurin (Sigma, St. Louis, MO) in PBS is added to each well of the plate and plates are incubated for an additional 18 to 24 h at 37° C., 5% CO2, and 95% humidity. Plates are read on a Synergy2 or equivalent reader (Biotek, Winooski, VT) using an excitation of 540 nm and an emission of 600 nm. Data is analyzed using Prism software (Graphpad, San Diego, CA) to calculate IC50 values.

HPAF-II cells = assay: HPAF-II cell proliferation assay (resazurin); type: cell-based; settings: Homo sapiens
Method: HPAF-II cells (catalog #CRL-1997) are obtained from the American Type Culture Collect (ATCC, Manassas, VA). Briefly, cells are grown in Minimum Essential Media supplemented with 10% characterized fetal bovine serum (Invitrogen, Carlsbad, CA) and 1% Penicillin/Streptomycin/L-Glutamine at 37° C., 5% CO2, and 95% humidity. Cells are expanded until reaching 70-95% confluency at which point they are sub-cultured or harvested for assay use. A serial dilution of test compound is dispensed into a 384-well black clear bottom plate in triplicate. 750 cells are added per well in 50 μL complete growth medium in the 384-well plate. Plates are incubated for 115 to 120 h at 37° C., 5% CO2, and 95% humidity. At the end of the incubation, 40 μL of a […] solution of resazurin (Sigma, St. Louis, MO) in PBS is added to each well of the plate and plates are incubated for an additional 18 to 24 h at 37° C., 5% CO2, and 95% humidity. Plates are read on a Synergy2 or equivalent reader (Biotek, Winooski, VT) using an excitation of 540 nm and an emission of 600 nm. Data is analyzed using Prism software (Graphpad, San Diego, CA) to calculate IC50 values.

HCT-116 cells = assay: HCT-116 cell proliferation assay (resazurin); type: cell-based; settings: Homo sapiens
Method: HCT-116 cells (catalog #CCL-247) are obtained from the American Type Culture Collect (ATCC, Manassas, VA). Briefly, cells are grown in McCoy's 5A supplemented with 10% characterized fetal bovine serum (Invitrogen, Carlsbad, CA) and 1% Penicillin/Streptomycin/L-Glutamine at 37° C., 5% CO2, and 95% humidity. Cells are expanded until reaching 70-95% confluency at which point they are sub-cultured or harvested for assay use. A serial dilution of test compound is dispensed into a 384-well black clear bottom plate in triplicate. 375 cells are added per well in 50 μL complete growth medium in the 384-well plate. Plates are incubated for 67 to 72 h at 37° C., 5% CO2, and 95% humidity. At the end of the incubation, 40 μL of a […] solution of resazurin (Sigma, St. Louis, MO) in PBS is added to each well of the plate and plates are incubated for an additional 4 to 5 h at 37° C., 5% CO2, and 95% humidity. Plates are read on a Synergy2 or equivalent reader (Biotek, Winooski, VT) using an excitation of 540 nm and an emission of 600 nm. Data is analyzed using Prism software (Graphpad, San Diego, CA) to calculate IC50 values.

MiaPaca-2 cells = assay: MiaPaca-2 cell proliferation assay (resazurin); type: cell-based; settings: Homo sapiens, MIA PaCa-2; Table 2, inhibition of cell proliferation; read-out: MiaPaca-2
Method: MiaPaca-2 cells (catalog #CRL-1420) are obtained from the American Type Culture Collect (ATTC, Manassas, VA). Briefly, cells were grown in DMVEM supplemented with […] fetal bovine serum (Invitrogen, Carlsbad, CA), 2.5% New Zealand sourced horse serum and 1% Penicillin/Streptomycin/L-Glutamine at 37° C., […], and […]. Cells are expanded until reaching […] at which point they are sub-cultured or harvested for assay use. For assays completed in 96-well plates, a serial dilution of test compound is dispensed into a 96-well black clear bottom plate in triplicate. Three thousand cells are added per well in 200 μL complete growth medium in the 96-well plate. Plates are incubated for 67 to 72 h at 37° C., 5% CO2, and 95% humidity. At the end of the incubation, 40 μL of a […] solution of resazurin (Sigma, St. Louis, MO) in PBS is added to each well of the plate and plates are incubated for an additional 5 to 6 h at 37° C., 5% CO2, and 95% humidity. For 384-well assays, a threefold, 8-point serial dilution of compound was spotted column wise into a 384 well black, clear bottom, tissue culture treated plate using the Beckman Coulter Echo 650. Likewise, a threefold, 8-point serial dilution of cobimetinib was spotted row wise into the 384 well black, clear bottom plate containing compound. DMSO concentration was constant across all wells at 0.4%. Seven hundred fifty cells are added per well in 50 μL complete growth medium in each 384-well plate. Plates are incubated for 67 to 72 h at 37° C., 5% CO2, and 95% humidity. At the end of the incubation, 10 μL of a 440 μM solution of resazurin (Sigma, St. Louis, MO) in PBS is added to each well of the plate and plates are incubated for an additional 4 to 6 h at 37° C., 5% CO2, and 95% humidity. Plates are read on a Synergy2 or equivalent reader (Biotek, Winooski VT) using an excitation of 540 nm and an emission of 600 nm. Data is analyzed using Prism software (Graphpad, San Diego, CA) to calculate IC50 values.

[1] = Table 1, inhibition of biochemical activity, read-out: BRAF
[2] = Table 1, inhibition of biochemical activity, read-out: CRAF
[3] = Table 2, inhibition of cell proliferation, read-out: HPAF-II
[4] = Table 2, inhibition of cell proliferation, read-out: HCT-116

T1 sequence (P15056 416-766): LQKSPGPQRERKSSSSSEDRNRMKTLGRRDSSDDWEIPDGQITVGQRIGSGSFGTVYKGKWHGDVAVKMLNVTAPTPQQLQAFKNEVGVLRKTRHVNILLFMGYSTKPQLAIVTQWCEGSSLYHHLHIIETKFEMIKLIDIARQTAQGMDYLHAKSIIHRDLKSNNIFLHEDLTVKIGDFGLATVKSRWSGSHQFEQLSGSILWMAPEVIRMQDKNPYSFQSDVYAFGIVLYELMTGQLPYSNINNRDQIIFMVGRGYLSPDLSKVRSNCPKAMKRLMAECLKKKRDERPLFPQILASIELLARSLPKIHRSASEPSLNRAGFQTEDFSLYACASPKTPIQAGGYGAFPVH

Row | SMILES | IC50 (B-Raf kinase; [1]) [nM] | IC50 (C-Raf kinase; [2]) [nM] | IC50 (HCT-116 cells; [4]) [nM] | IC50 (MiaPaca-2 cells) [nM] | IC50 (B-Raf kinase; Table 4, read-out: BRAF IC50) [nM] | IC50 (C-Raf kinase; Table 4, read-out: CRAF IC50) [nM] | IC50 (HCT-116 cells; HCT-116, Table 4, read-out: HCT-116 IC50) [nM] | IC50 (Pa16c cells) [nM] | IC50 (HPAF-II cells; [3]) [nM] | IC50 (HPAF-II cells; HPAF-II, Table 4, read-out: HPAF-II IC50) [nM]
1 | CNC(=O)c1cc(-c2cncc(-c3cc(NC(=O)c4cc(C(F)(F)F)cnn4)ccc3C)c2)ccn1 [Example 16] | < 100 | < 100 | 500 to 1000 | 500 to 1000 | – | – | – | 1000 to 10000 | 1000 to 10000 | –
2 | CNC(=O)c1cc(-c2cncc(-c3cc(NC(=O)c4cc(C(F)(F)F)cnn4)ccc3C)c2)ncn1 [Example 17] | 100 to 500 | 100 to 500 | 1000 to 10000 | 1000 to 10000 | – | – | – | 1000 to 10000 | 1000 to 10000 | –
3 | CNC(=O)c1cc(-c2cc(-c3cc(NC(=N)c4cc(C(F)(F)F)cnn4)ccc3C)ccn2)ccn1 [Example 20] | 500 to 1000 | 100 to 500 | 1000 to 10000 | 1000 to 10000 | – | – | – | 1000 to 10000 | 1000 to 10000 | –
4 | CNC(=O)c1cc(-c2cc(-c3cc(NC(=N)c4cc(C5CC5)cnn4)ccc3C)ccn2)ccn1 [Example 21] | 500 to 1000 | 100 to 500 | 1000 to 10000 | 1000 to 10000 | – | – | – | 1000 to 10000 | 1000 to 10000 | –
5 | CNC(=O)c1cc(-c2cc(-c3cc(NC(=O)c4cccc(C(C)(C)C#N)c4)ccc3C)cc(OCCO)n2)ccn1 [reference compound] | – | – | – | – | < 100 | < 100 | 100 to 500 | – | – | 500 to 1000

Continued, in another order:

Row | IC50 (B-Raf kinase; [1]) [nM] | IC50 (C-Raf kinase; [2]) [nM] | IC50 (HCT-116 cells; [4]) [nM] | IC50 (MiaPaca-2 cells) [nM] | IC50 (B-Raf kinase; Table 4, read-out: BRAF IC50) [nM] | IC50 (C-Raf kinase; Table 4, read-out: CRAF IC50) [nM] | IC50 (HCT-116 cells; HCT-116, Table 4, read-out: HCT-116 IC50) [nM] | SMILES | IC50 (Pa16c cells) [nM] | IC50 (HPAF-II cells; [3]) [nM] | IC50 (HPAF-II cells; HPAF-II, Table 4, read-out: HPAF-II IC50) [nM]
6 | < 100 | < 100 | 100 to 500 | 100 to 500 | – | – | – | CNC(=O)c1cc(-c2cc(-c3cc(NC(=O)c4cc(C(F)(F)F)cnn4)ccc3C)nc(NCCO)n2)ccn1 [Example 19] | 500 to 1000 | 100 to 500 | –
7 | < 100 | < 100 | 1000 to 10000 | 1000 to 10000 | – | – | – | CNC(=O)c1cc(-c2nc(NCCO)cc(-c3cc(NC(=O)c4cc(C5CC5)cnn4)ccc3C)n2)ccn1 [Example 22] | 1000 to 10000 | 1000 to 10000 | –
8 | < 100 | < 100 | 100 to 500 | 100 to 500 | – | – | – | CNC(=O)c1cc(-c2cc(-c3cc(NC(=O)c4cc(C#N)cnn4)ccc3C)cc(N[C@H](C)CO)n2)ccn1 [Example 50] | – | 500 to 1000 | –
9 | 100 to 500 | < 100 | 500 to 1000 | 500 to 1000 | – | – | – | CNC(=O)c1cc(-c2cc(N)cc(-c3cc(NC(=O)c4cc(C(F)(F)F)cnn4)ccc3C)c2)ccn1 [Example 51] | – | 1000 to 10000 | –
10 | 100 to 500 | < 100 | 1000 to 10000 | 1000 to 10000 | – | – | – | CNC(=O)c1cc(-c2cc(-c3cc(NC(=O)c4cc(C(N)=O)cnn4)ccc3C)cc(OCCO)n2)ccn1 [Example 52, N^3-(3-(6-(2-hydroxyethoxy)-2′-(methylcarbamoyl)-[2,4′-bipyridin]-4-yl)-4-methylphenyl)pyridazine-3,5-dicarboxamide] | – | 1000 to 10000 | –
11 | < 100 | < 100 | 100 to 500 | 100 to 500 | – | – | – | CNC(=O)c1cc(-c2cc(-c3cc(NC(=O)c4cc(C#N)cnn4)ccc3C)cc(NCCO)n2)ccn1 [Example 53] | – | 100 to 500 | –
